Experimental data taken from the NIST ThermoML archive (doi:10.1016/j.jct.2013.10.007).
Numbers after ± are expanded uncertainties.

Assays:
[1] = Molar enthalpy of transition or fusion; settings: Crystal; DSC
[2] = Crystal; DTA

Molar enthalpy of transition or fusion [1]: 27.7 ± 8.6 kcal/mol
Normal melting temperature [2]: 72.89 ± 0.53 °C
Compound: CCCCCCCCCCCCCCCCCC(=O)OCC(COC(=O)CCCCCCCCCCCCCCCCC)OC(=O)CCCCCCCCCCCCCCCCC [glycerol trioctadecanoate]
